PubChem BioAssay (NCI)
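48-hour exposure; five concentrations; linearly interpolated endpoints. GI50: concentration for 50% inhibition of growth. TGI denotes the concentration required for complete inhibition of growth.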

Assays:
Assay in all cases: inhibition of tumour cell growth, NCI panel, 48 h
OVCAR-4 ovarian = system: OVCAR-4 ovarian
SNB-19 CNS = system: SNB-19 CNS
RXF 393 renal = system: RXF 393 renal
NCI-H226 lung = system: NCI-H226 lung
LOX IMVI melanoma = system: LOX IMVI melanoma
RPMI-8226 leukemia = system: RPMI-8226 leukemia
PC-3 prostate = system: PC-3 prostate
KM12 colon = system: KM12 colon
SK-MEL-2 melanoma = system: SK-MEL-2 melanoma
U251 CNS = system: U251 CNS

## N#Cc1c(Cl)c2cc([N+](=O)[O-])ccc2n2c1nc1ccccc12
OVCAR-4 ovarian
  TGI: 3.58 µM
SNB-19 CNS
  TGI: 20.3 µM
RXF 393 renal
  TGI: 5.39 µM
NCI-H226 lung
  TGI: 34.3 µM
LOX IMVI melanoma
  TGI: 3.05 µM
RPMI-8226 leukemia
  TGI: > 22.5 µM
PC-3 prostate
  TGI: 12.5 µM
KM12 colon
  TGI: 42.8 µM
SK-MEL-2 melanoma
  TGI: 36.4 µM
U251 CNS
  TGI: > 100 µM

## CCOC(=O)C(O)(NC(=O)c1ccc(F)cc1)C(F)(F)F (stereo unspecified)
OVCAR-4 ovarian
  TGI: > 100 µM
SNB-19 CNS
  TGI: > 100 µM
RXF 393 renal
  TGI: > 100 µM
NCI-H226 lung
  TGI: > 100 µM
LOX IMVI melanoma
  TGI: > 100 µM
RPMI-8226 leukemia
  TGI: > 100 µM
PC-3 prostate
  TGI: > 100 µM
KM12 colon
  TGI: > 100 µM
SK-MEL-2 melanoma
  TGI: > 100 µM
U251 CNS
  TGI: > 100 µM

## O=S1(=O)N(CCNc2nccc(-c3c(-c4cccc(O)c4)nc4sccn34)n2)CCN1Cc1ccccc1
OVCAR-4 ovarian
  GI50: 13.6 µM
  TGI: > 50 µM
SNB-19 CNS
  GI50: 36.4 µM
  TGI: > 50 µM
RXF 393 renal
  GI50: 982 nM
  TGI: 9.37 µM
NCI-H226 lung
  GI50: 7.45 µM
  TGI: 20.8 µM
LOX IMVI melanoma
  GI50: 2570 nM
  TGI: 16.2 µM
RPMI-8226 leukemia
  GI50: 4.41 µM
  TGI: 14.3 µM
PC-3 prostate
  GI50: 5.66 µM
  TGI: > 50 µM
KM12 colon
  GI50: 5.44 µM
  TGI: 15.3 µM
SK-MEL-2 melanoma
  GI50: 1550 nM
  TGI: 4.59 µM
U251 CNS
  GI50: 8.21 µM
  TGI: > 50 µM

## NCCCCC(N)C(=O)NCCNc1ccc(NCCNC(=O)C(N)CCCCN)c2c1C(=O)c1ccccc1C2=O (stereo unspecified)
OVCAR-4 ovarian
  TGI: > 100 µM
SNB-19 CNS
  TGI: > 100 µM
RXF 393 renal
  TGI: 21.6 µM
NCI-H226 lung
  TGI: > 100 µM
LOX IMVI melanoma
  TGI: > 100 µM
RPMI-8226 leukemia
  TGI: > 100 µM
PC-3 prostate
  TGI: > 100 µM
KM12 colon
  TGI: > 100 µM
SK-MEL-2 melanoma
  TGI: > 100 µM
U251 CNS
  TGI: > 100 µM

## C=CC1(C)CCC2=C(CCC3C(C)(C(=O)OC)CCCC23C)C1=O (stereo unspecified)
OVCAR-4 ovarian
  TGI: 28.2 µM
SNB-19 CNS
  TGI: > 100 µM
NCI-H226 lung
  TGI: 40.2 µM
LOX IMVI melanoma
  TGI: 34.3 µM
RPMI-8226 leukemia
  TGI: 55.9 µM
KM12 colon
  TGI: 31.5 µM
SK-MEL-2 melanoma
  TGI: 33.9 µM
U251 CNS
  TGI: 29 µM

## O=C(N/N=C\c1cccc(O)c1)c1ccncc1
OVCAR-4 ovarian
  TGI: > 100 µM
SNB-19 CNS
  TGI: > 100 µM
RXF 393 renal
  TGI: > 100 µM
LOX IMVI melanoma
  TGI: > 100 µM
PC-3 prostate
  TGI: > 100 µM
KM12 colon
  TGI: > 100 µM
SK-MEL-2 melanoma
  TGI: > 100 µM
U251 CNS
  TGI: > 100 µM

## O=C1CCCCC2N(C(c3ccccc3)c3ccccc3)CC[C@@]12c1ccccc1 (mixture of isomers)
OVCAR-4 ovarian
  TGI: > 10 µM
SNB-19 CNS
  TGI: > 10 µM
RXF 393 renal
  TGI: > 10 µM
NCI-H226 lung
  TGI: > 10 µM
LOX IMVI melanoma
  TGI: > 10 µM
RPMI-8226 leukemia
  TGI: 9.31 µM
KM12 colon
  TGI: > 10 µM
U251 CNS
  TGI: > 10 µM

## C=C(C)C(=O)OC1CCC2(C)C(CCC3C2CCC2(C)C(c4ccc(=O)oc4)CC4OC432)C1 (stereo unspecified)
OVCAR-4 ovarian
  TGI: 34 µM
SNB-19 CNS
  TGI: 72.5 µM
RXF 393 renal
  TGI: 9.95 µM
NCI-H226 lung
  TGI: 48.1 µM
LOX IMVI melanoma
  TGI: 24.1 µM
RPMI-8226 leukemia
  TGI: 20.1 µM
KM12 colon
  TGI: 24.3 µM
SK-MEL-2 melanoma
  TGI: 10.2 µM
U251 CNS
  TGI: 30.3 µM

## O=C(O)Cc1cc(O)c(CC(=O)O)cc1O
OVCAR-4 ovarian
  TGI: > 100 µM
SNB-19 CNS
  TGI: > 100 µM
RXF 393 renal
  TGI: > 100 µM
NCI-H226 lung
  TGI: > 100 µM
LOX IMVI melanoma
  TGI: > 100 µM
PC-3 prostate
  TGI: > 100 µM
KM12 colon
  TGI: > 100 µM
SK-MEL-2 melanoma
  TGI: > 100 µM
U251 CNS
  TGI: > 100 µM

## CCN(CC)CC(=O)O[C@]1(CC)C(=O)OCc2c1cc1n(c2=O)Cc2cc3ccccc3nc2-1
OVCAR-4 ovarian
  TGI: 0.62 µM
SNB-19 CNS
  TGI: 11.3 µM
RXF 393 renal
  TGI: 0.564 µM
NCI-H226 lung
  TGI: 0.23 µM
LOX IMVI melanoma
  TGI: 0.177 µM
RPMI-8226 leukemia
  TGI: 1.85 µM
PC-3 prostate
  TGI: > 100 µM
KM12 colon
  TGI: 0.862 µM
SK-MEL-2 melanoma
  TGI: 1.42 µM
U251 CNS
  TGI: 0.221 µM

## Cc1cc(O)c(C(C)(C)C)cc1Sc1cc(C(C)(C)C)c(O)cc1C
OVCAR-4 ovarian
  GI50: 3.16 µM
  TGI: 12.5 µM
SNB-19 CNS
  GI50: 3.72 µM
  TGI: 13 µM
RXF 393 renal
  GI50: 1820 nM
  TGI: 3.39 µM
LOX IMVI melanoma
  GI50: 1970 nM
  TGI: 3.64 µM
RPMI-8226 leukemia
  GI50: 2.97 µM
  TGI: 15.8 µM
PC-3 prostate
  GI50: 2.77 µM
  TGI: 10.6 µM
KM12 colon
  GI50: 2.24 µM
  TGI: 5.01 µM
SK-MEL-2 melanoma
  GI50: 2460 nM
  TGI: 4.51 µM
U251 CNS
  GI50: 1.99 µM
  TGI: 4.22 µM

## Cc1nc2ccccc2n1C(=O)c1c(F)c(F)c(F)c(F)c1F
OVCAR-4 ovarian
  TGI: 29 µM
SNB-19 CNS
  TGI: > 100 µM
RXF 393 renal
  TGI: 33.5 µM
NCI-H226 lung
  TGI: 65.5 µM
LOX IMVI melanoma
  TGI: 25.1 µM
RPMI-8226 leukemia
  TGI: 38.3 µM
PC-3 prostate
  TGI: 71.4 µM
KM12 colon
  TGI: 14.7 µM
SK-MEL-2 melanoma
  TGI: 46.6 µM
U251 CNS
  TGI: 52.6 µM

## Clc1ccccc1/C=C/c1cscn1
OVCAR-4 ovarian
  TGI: > 100 µM
SNB-19 CNS
  TGI: > 100 µM
RXF 393 renal
  TGI: > 100 µM
LOX IMVI melanoma
  TGI: > 100 µM
RPMI-8226 leukemia
  TGI: > 100 µM
KM12 colon
  TGI: > 100 µM
SK-MEL-2 melanoma
  TGI: > 100 µM
U251 CNS
  TGI: > 100 µM

## CCOC(=O)CN=C1NNS(=O)(=O)c2ccccc21
OVCAR-4 ovarian
  TGI: > 100 µM
SNB-19 CNS
  TGI: > 100 µM
RXF 393 renal
  TGI: > 100 µM
NCI-H226 lung
  TGI: > 100 µM
LOX IMVI melanoma
  TGI: > 100 µM
RPMI-8226 leukemia
  TGI: > 100 µM
PC-3 prostate
  TGI: > 100 µM
KM12 colon
  TGI: > 100 µM
U251 CNS
  TGI: > 100 µM

## Cc1ccc2c(c1)C1(C)OC(C=CC1=O)O2 (stereo unspecified)
OVCAR-4 ovarian
  TGI: 2.29 µM
SNB-19 CNS
  TGI: 8.97 µM
RXF 393 renal
  TGI: 1.56 µM
NCI-H226 lung
  TGI: 7.94 µM
LOX IMVI melanoma
  TGI: 1.31 µM
RPMI-8226 leukemia
  TGI: 1.65 µM
PC-3 prostate
  TGI: 3.81 µM
KM12 colon
  TGI: 2.14 µM
SK-MEL-2 melanoma
  TGI: 5.85 µM
U251 CNS
  TGI: 0.549 µM

## Cn1c(=O)c2[nH]c(CCCCC(=O)O)nc2n(C)c1=O
OVCAR-4 ovarian
  TGI: > 100 µM
SNB-19 CNS
  TGI: > 100 µM
RXF 393 renal
  TGI: > 100 µM
NCI-H226 lung
  TGI: > 100 µM
LOX IMVI melanoma
  TGI: > 100 µM
PC-3 prostate
  TGI: > 100 µM
KM12 colon
  TGI: > 100 µM
SK-MEL-2 melanoma
  TGI: > 100 µM
U251 CNS
  TGI: > 100 µM
